Data on 3 molecules can be found in ChEMBL document CHEMBL1124670, “1-(3-cyano-2,3-dideoxy-beta-D-erythro-pentofuranosyl)thymine (cyanothymidine): synthesis and antiviral evaluation against human immunodeficiency virus” (1989).

Converted amounts (≈) assume the structure as drawn. Where only a bound is given, the exact number is not on record here.

Common to all, as to assay type: functional, Homo sapiens
The subject of assay [1] is C8166. As to the kind of experiment: Protection of C8166 cells against the cytopathic effect of HIV isolate RF. Background: Cytopathic effects are the visible damage that an infection or toxin causes in cultured cells.
Assay [2] deals with C8166. As to the kind of experiment: Protection of C8166 cells against the cytopathic effect of HIV isolate CBL-1.
The subject of another assay is ATH-8 cell line. As to the kind of experiment: Protection of ATH8 cells against the cytopathic effect of HIV isolate […].
The subject of assay [3] is C8166. As to the kind of experiment: Pprotection of C8166 cells against the cytopathic effect of HIV isolate RF.

For the molecule `Cc1cn(C2C[C@@H](C#N)[C@@H](CO)O2)c(=O)[nH]c1=O` (stereo partly drawn), the ED90 was >100 mg/L in the assay on C8166 [1], >100 mg/L in the assay on C8166 [2] and >2.5 mg/L with ATH-8 cell line.
For the molecule `Cc1cn([C@H]2C=C[C@@H](CO)O2)c(=O)[nH]c1=O` [STAVUDINE], the ED90 with ATH-8 cell line is <0.25 mg/L; with C8166 [3] it was 1 mg/L (≈ 4.46 µM).
As to `Cc1cn([C@H]2C[C@H](N=[N+]=[N-])[C@@H](CO)O2)c(=O)[nH]c1=O` [ZIDOVUDINE], the ED90 is 0.1 mg/L (≈ 0.374 µM) in the assay with C8166 [2], <0.25 mg/L with ATH-8 cell line and 1 mg/L (≈ 3.74 µM) in the assay on C8166 [3].
